According to ChEMBL document CHEMBL2321698, “Novel Amino-Nicotinamide Derivatives as Modulators of KCNQ2/3 Potassium Channels” (2013):

Assays:
Rattus norvegicus = test: Antinociceptive activity in po dosed Sprague-Dawley rat by low intensity tail flick test; type: functional
[1] = molecular target: T1, Voltage-gated potassium channel, KQT; KCNQ2(Kv7.2)/KCNQ3(Kv7.3) (Homo sapiens) (UniProt O43526+O43525); test: Modulation of human KCNQ2/3 channel expressed in CHO-K1 cells by fluorescence assay; type: cell-based
[2] = molecular target: T1, Voltage-gated potassium channel, KQT; KCNQ2(Kv7.2)/KCNQ3(Kv7.3) (Homo sapiens); test: Modulation of human KCNQ2/3 channel expressed in CHO-K1 cells by fluorescence assay relative to retigabine; type: cell-based; parameters: concentration or dose not given beside the values

Activity [1] [nM]	Activity [2] [%]	SMILES	ED50 (Rattus norvegicus) [mg/kg]
56	160	CCSc1nc(N2CCOCC2)cc(C)c1C(=O)NCc1cc(C)cc(F)c1	78
181	176	CCCc1nc(N2CCOCC2)cc(C)c1C(=O)NCc1cccc(F)c1	81
42	244	CCSc1nc(N2CCOCC2)cc(C)c1C(=O)NCCCC(C)(C)C	100
483	245	Cc1cc(N2CCOCC2)nc(C2CC2)c1C(=O)NC[C@@H]1CCCC[C@H]1O	67
134	171	CCSc1nc(N2CCOCC2)cc(C)c1C(=O)NCc1cccc(F)c1	4.3
736	155	COc1nc(N2CCOCC2)cc(C)c1C(=O)NCc1cccc(F)c1	79
206	215	CCSc1nc(N2CCOCC2)cc(C)c1C(=O)NCCCC(C)C	46
124	158	CCSc1nc(N2CCOCC2)cc(C)c1C(=O)NCc1ccc(F)cc1	94
